# Data as given in patent US20110015080A1, “Solution-based methods for RNA expression profiling” (MASSACHUSETTS INSTITUTE OF TECHNOLOGY, priority 2005, published 2011).
# “And” between values parts separate entries of the source, which are not always exact repeats. Equal entries are not always repeated.
# Tested on: HL60 (human promyelocytic leukemia) cells
# Test: LMA-FlexMAP bead-based gene expression signature analysis of total RNA from HL60 cells treated with tretinoin or DMSO (ninety transcripts); on FlexMap signal, transcript NM 000875 (LUA#55): test concentration or dose not given here
# [1] = Experiment 2, HL60 cells, Tretinoin-treated, replicate columns
# [2] = Table 6B Experiment 1, tretinoin-treated HL60 samples, one column per replicate
structure (smiles),measurement,setting,value
"CC1=C(/C=C/C(C)=C/C=C/C(C)=C/C(=O)O)C(C)(C)CCC1 [tretinoin, all-trans-retinoic acid]","FlexMap signal, transcript NM_000698 (LUA#14)",[1],1787 and 1685 and 64.5 and 1902 and 539 and 1934.5 and 1914.5 and 1773 and 1769 and 1871.5
same,"FlexMap signal, transcript NM_000875 (LUA#55)",[1],89 and 104 and 28.5 and 81 and 36 and 79 and 80 and 85 and 90 and 87.5
same,"FlexMap signal, transcript NM_000962 (LUA#7)",[1],873 and 822.5 and 65 and 900 and 253 and 845 and 904.5 and 846 (2×) and 930
same,"FlexMap signal, transcript NM_001974 (LUA#11)",[1],494 and 340.5 and 30 and 516.5 and 92.5 and 533 and 515 and 493 and 470 and 539
same,"FlexMap signal, transcript NM_002358 (LUA#53)",[1],109 (2×) and 94 and 33.5 and 103 (2×) and 39 and 96 and 97 and 119
same,"FlexMap signal, transcript NM_003825 (LUA#8)",[1],721 and 689.5 and 102 and 772 and 220 and 800 and 733 and 738 and 727 and 764
same,"FlexMap signal, transcript NM_004514 (LUA#46)",[1],399 and 424.5 and 25 and 469 and 99 and 428 and 445 and 422 and 420.5 and 460
same,"FlexMap signal, transcript NM_004631 (LUA#52)",[1],399 (2×) and 397 and 38.5 and 391 and 97 and 396 and 399.5 and 401.5 and 424
same,"FlexMap signal, transcript NM_004782 (LUA#4)",[1],1036.5 and 932 and 45 and 979.5 and 253 and 1005 and 1030 and 914 and 929 and 1044
same,"FlexMap signal, transcript NM_005736 (LUA#1)",[1],384.5 and 298.5 and 36.5 and 390 and 90.5 and 408 and 411 and 385 and 392 and 414.5
same,"FlexMap signal, transcript NM_006457 (LUA#13)",[1],131 (2×) and 121 and 43 and 115.5 (2×) and 65 and 118 and 120 and 117
same,"FlexMap signal, transcript NM_006773 (LUA#47)",[1],284 and 354.5 and 28 and 270 and 68 and 273 and 283 and 272 and 279 and 305
same,"FlexMap signal, transcript NM_006948 (LUA#51)",[1],980 and 887 and 51 and 974 and 248 and 1014 and 1006 and 963.5 and 958.5 and 1024.5
same,"FlexMap signal, transcript NM_007331 (LUA#50)",[1],102 and 115 (2×) and 24 and 47 and 95.5 and 96 and 97.5 and 94.5 and 111.5
same,"FlexMap signal, transcript NM_013402 (LUA#54)",[1],89 and 83 and 30 and 82 and 46 and 90.5 and 95.5 and 85 and 84.5 and 97
same,"FlexMap signal, transcript NM_014288 (LUA#48)",[1],63.5 and 55 and 22 and 52 and 33 and 60 and 57 (3×) and 65
same,"FlexMap signal, transcript NM_014962 (LUA#5)",[1],691 and 618 and 39 and 595.5 and 160 and 670.5 and 705 and 677.5 and 678 and 710
same,"FlexMap signal, transcript NM_016061 (LUA#9)",[1],450 and 440 and 48 and 458 and 121 and 470.5 and 464 and 468 and 459 and 503.5
same,"FlexMap signal, transcript NM_017440 (LUA#49)",[1],91 and 29 and 88 and 42 and 78 and 97 and 87.5 and 84 and 86.5
same,"FlexMap signal, transcript NM_018217 (LUA#3)",[1],980 and 922 and 48 and 935 and 258 and 992 and 1053.5 and 947 and 966 and 1022.5
same,"FlexMap signal, transcript NM_032571 (LUA#15)",[1],228 (2×) and 244 (2×) and 22.5 and 58.5 and 234 and 208 and 205 and 239
same,"FlexMap signal, transcript NM_173823 (LUA#6)",[1],760 and 592 and 36 and 736 and 182.5 and 758 and 734.5 and 658.5 and 681 and 816
same,FlexMap signal of transcript NM_014288 (LUA#48),"Experiment 3, tretinoin-treated samples, one column per sample",45 and 48 and 30 and 25 and 30.5 and 39 and 43 and 33
same,NM_000070 (FlexMap ID LUA#2) signal,[2],329.5 and 386 and 269.5 and 370 and 104.5 and 354 and 372 and 159 and 336 and 318
same,NM_000153 (FlexMap ID LUA#10) signal,[2],357.5 and 432 and 324 and 419.5 and 120 and 384 and 408 and 170 and 374 and 377.5
same,NM_000632 (FlexMap ID LUA#12) signal,[2],323.5 and 222 and 292 and 78 and 307 and 277 and 114 and 275.5 and 251
same,NM_000698 (FlexMap ID LUA#14) signal,[2],1562 and 1779 and 1332.5 and 1743 and 503 and 1688 and 1686.5 and 787 and 1606 and 1552.5
same,NM_000875 (FlexMap ID LUA#55) signal,[2],63 and 68 and 53 and 62 (2×) and 36 and 65 and 48 and 74 and 54
same,NM_000962 (FlexMap ID LUA#7) signal,[2],754 and 894 and 663 and 823 and 294 and 793.5 and 807 and 398 and 772 and 764
same,NM_001974 (FlexMap ID LUA#11) signal,[2],403 and 466 and 288 and 435.5 and 95 and 414 and 430 and 141 and 420.5 and 396
same,NM_002358 (FlexMap ID LUA#53) signal,[2],99 (2×) and 113 and 72 and 98 (2×) and 53 and 96 and 58 and 85
same,NM_003825 (FlexMap ID LUA#8) signal,[2],557 and 658 and 476.5 and 630.5 and 256 and 580 and 609 and 318 and 584 and 550
same,NM_004514 (FlexMap ID LUA#46) signal,[2],312.5 and 356 and 262 and 320 and 96 and 306 and 313 and 144.5 and 302 and 286
same,NM_004631 (FlexMap ID LUA#52) signal,[2],304 and 352 and 238 and 334 and 103 and 331 and 310.5 and 135.5 and 326 and 289.5
same,NM_004782 (FlexMap ID LUA#4) signal,[2],790.5 and 907 and 635 and 855 (2×) and 232 and 870 and 812.5 and 341 and 750
same,NM_005736 (FlexMap ID LUA#1) signal,[2],308 and 336 and 319 and 351 and 89 and 329 and 319.5 and 138.5 and 309 and 279
same,NM_006457 (FlexMap ID LUA#13) signal,[2],144 and 135 (2×) and 113 and 78 and 123 and 136 and 90 and 151.5 and 132
same,NM_006773 (FlexMap ID LUA#47) signal,[2],213 (2×) and 257 and 139 and 56.5 and 216 and 219 and 79.5 and 235 and 174
same,NM_006948 (FlexMap ID LUA#51) signal,[2],742 and 840.5 and 592.5 and 791.5 and 224 and 773.5 and 795 and 325 and 762 and 716.5
same,NM_007331 (FlexMap ID LUA#50) signal,[2],85.5 and 97 and 70 and 81 and 42 and 96 and 87 and 53 and 91 and 80
same,NM_013402 (FlexMap ID LUA#54) signal,[2],72 (2×) and 71 and 62 and 75 (2×) and 43 and 75.5 and 48.5 and 71.5
same,NM_014288 (FlexMap ID LUA#48) signal,[2],64 and 62 and 55 and 61 and 45 and 60 (2×) and 56 and 41.5 and 59
same,NM_014962 (FlexMap ID LUA#5) signal,[2],537 and 575.5 and 414.5 and 556 and 171.5 and 552.5 and 567 and 232 and 576.5 and 516.5
same,NM_016061 (FlexMap ID LUA#9) signal,[2],362.5 and 422 and 297 and 401 and 128 and 385 and 382 and 173 and 357.5 and 357
same,NM_017440 (FlexMap ID LUA#49) signal,[2],59 and 66 and 55 and 68 (2×) and 40 and 67 and 48.5 and 66.5 and 62
same,NM_018217 (FlexMap ID LUA#3) signal,[2],747 and 886 and 659.5 and 824 and 225.5 and 823 and 800 and 343 and 785 and 727
same,NM_032571 (FlexMap ID LUA#15) signal,[2],144 and 188 and 125 and 161 and 60 and 169 and 164.5 and 81 and 172.5 and 146
same,NM_173823 (FlexMap ID LUA#6) signal,[2],591.5 and 718 and 482.5 and 654 and 186.5 and 675 and 646 and 291 and 604.5 and 573
